From US12622917B2, “High-activity Wnt pathway inhibitor compound” (ADLAI NORTYE BIOPHARMA CO., LTD., priority 2020, dated 2026) come the findings set out here.

Where only a bound is given, the exact number is not on record here.

Experiment [1] concerns Colo205-LUC-TCF/LEF M1 reporter cell line (Wnt pathway). Description: Colo205-LUC-TCF/LEF M1 reporter gene (luciferase) inhibition. It counts as cell-based. The following applies: 4 hours incubation, luciferase readout. An outline of the steps:
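Luminescent readout of TCF/LEF-regulated luciferase after a 4 h, 37° C compound exposure in a stable Colo205 reporter clone (10,000 cells/well). Serial 3-fold dilutions started at 20 uM; IC50 derived using DMSO-treated cells and no-cell wells as controls.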
On the technique in general: Reporter assays use an easily measured gene product as a stand-in for the process of interest.

For a further experiment, the system named is RKO. Description: Proliferation inhibition, non-Wnt mutant control cell line RKO. Type of experiment: cell-based. The following applies: Homo sapiens, Wnt-independent control cell line, 96 hours, read-out: Antiproliferative IC50 RKO. In outline: (§1)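 Cells were seeded at 1000 per well, incubated 20-24 h at 37° C in 5% CO2, then exposed to 3-fold serially diluted compound (top final concentration 20 uM) for 96 hours. Viability was read by a Promega cell viability assay; IC50 values were derived relative to DMSO-only and cell-free control wells.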

A further experiment concerns Colo205. Description: Proliferation inhibition, Wnt mutant cell line Colo205. Type of experiment: cell-based. The following applies: Homo sapiens, COLO 205; Colo205, Wnt pathway-dependent, 96 hours; read-out: Antiproliferative IC50 Colo205. In outline:
as §1

For a further experiment, the system named is Hela. Description: Proliferation inhibition, non-Wnt mutant control cell line Hela. Type of experiment: cell-based. The following applies: Homo sapiens, Wnt-independent control cell line, 96 hours, read-out: Antiproliferative IC50 Hela. The source says:
The cell lines used in the experiment are Colo205 and DU4475 cell lines whose Wnt pathway is continuously activated and whose proliferation is Wnt pathway-dependent; while the BELA and RKO cell lines, whose Wnt pathway is not activated under normal circumstances and the proliferation is independent of Wnt pathway, as control cell lines. It is Judged that the inhibitory effect of the compound of the present invention on Wnt-dependent proliferation is not caused by other non-specific toxicity.
Treat the Colo205, Du4475, HELA and RKO cell lines cultured in their respective mediums in the logarithmic growth phase, collect the cells and prepare a uniform cell suspension of known concentration, and then add it to the 96-well cell culture plate Cell suspension, so that each well contains 1000 cells. Put it into a 5% CO2 incubator and incubate at 37° C. for 20-24 h. On the second day, the fully dissolved, 3-fold serially diluted compound was added to each cell culture well, so that the final maximum concentration in the cell culture well was 20 uM, and the culture was continued for 96 hours. In this test, Promega's cell viability detection test is used for detection. The more the cells proliferate, the stronger the final signal intensity will be. The detection instrument is SpectraMax, full wavelength mode. The wells only added with DMSO were used as positive control wells, and the wells that were not inoculated with cells were used as negative control wells. […] The IC50 value of cell proliferation inhibition was used to evaluate the inhibitory effect of the compound on the Wnt pathway and the toxic effect on normal cells (Table 2).

Another experiment relates to DU4475. Description: Proliferation inhibition, Wnt mutant cell line DU4475. The following applies: Homo sapiens, DU-4475; DU4475, Wnt pathway-dependent, 96 hours; read-out: Antiproliferative IC50 DU4475. It counts as cell-based. In outline: as §1
A further experiment concerns HepG2. Description: Proliferation inhibition, HepG2 cell line. It counts as cell-based. The following applies: Homo sapiens; HepG2 cells, 96 hours culture, cell viability detection; read-out: Antiproliferative IC50 HepG2. In outline: (§2)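 Wnt-dependent proliferation in HepG2 and NCI-H929 cells, seeded at 4000 cells/well and pre-incubated 20-24 h at 37 °C. Cells were then exposed for 96 h to 3-fold serial dilutions (top final concentration 20 uM), and viability was read by signal intensity. IC50 was referenced to DMSO-only wells and cell-free wells.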

The subject of the next experiment is NCI-H929. Description: Proliferation inhibition, NCI-H929 cell line. The following applies: Homo sapiens; NCI-H929 cells, 96 hours culture, cell viability detection; read-out: Antiproliferative IC50 NCI-H929. It counts as cell-based, human. An outline of the steps:
as §2

`CN1c2nc(NCc3cnn(Cc4ccc(C(F)(F)F)nc4)c3)nc3ccn(c23)C[C@@H]1C1CC1` [75 (W77)]: the IC50 in experiment [1] was 15 nM; with RKO, 4260 nM; in the experiment on Colo205, 9.2 nM; in the experiment with Hela, 3860 nM; with DU4475, 6.7 nM.
For `C[C@H]1C(=O)N2CCCc3nc(NCc4cnn(Cc5ccc(F)cc5)c4)nc(c32)N1C` [Example 15, (S)-2-(((1-(4-fluorobenzyl)-1H-pyrazol-4-yl)methyl)amino)-4,5-dimethyl-4,5,9,10-tetrahydro-6H,8H-pyrido[3,2,1-de]pteridin-6-one], the IC50 in experiment [1] is 53 nM; with RKO, more than 10000 nM; in the experiment with Colo205, 41 nM; in the experiment on Hela it was more than 10000 nM; in the experiment on DU4475, 44 nM.
With `C[C@H]1Cn2ccc3nc(NCc4cnn(CCCC(F)(F)F)c4)nc(c32)N1C` [81 (W105)], the concentration for half-maximal inhibition (IC50) in experiment [1] is 17 nM; in the experiment with RKO it was more than 10000 nM; in the experiment with Colo205, 33.4 nM; in the experiment with Hela it was more than 10000 nM; in the experiment on DU4475, 19.3 nM.
For the compound `COC[C@H]1CN(C)c2nc(NCc3cnn(Cc4ccc(C(F)(F)F)nc4)c3)nc3cc(C)n1c23` [Example 25, (R)-6-(methoxymethyl)-4,8-dimethyl-N-((1-((6-(trifluoromethyl)pyridin-3-yl)methyl)-1H-pyrazol-4-yl)methyl)-5,6-dihydro-4H-pyrrolo[3,2,1-de]pteridin-2-amine], the half-maximal inhibitory concentration (IC50) in experiment [1] is 19 nM; in the experiment with RKO, more than 10000 nM; in the experiment with Colo205 it was 44 nM; with Hela, more than 10000 nM; with DU4475, 50 nM.
Consider `C[C@H]1C(=O)N2CCCc3nc(NCc4cnn(CCCC(F)(F)F)c4)nc(c32)N1C` [93 (W223)], for which the IC50 with RKO is more than 10000 nM; in the experiment on Colo205, 89 nM; in the experiment with Hela it was more than 10000 nM; with DU4475, 79 nM.
On to `C[C@@H]1CN(C)c2nc(NCc3cnn(Cc4ccc(C(F)(F)F)nc4)c3)nc3ccn1c23` [Example 27, (R)-4,6-dimethyl-N-((1-((6-(trifluoromethyl)pyridin-3-yl)methyl)-1H-pyrazol-4-yl)methyl)-5,6-dihydro-4H-pyrrolo[3,2,1-de]pteridin-2-amine], for which the IC50 in experiment [1] is 26 nM; in the experiment with RKO it was 4430 nM; with Colo205, 76 nM; in the experiment with Hela it was more than 10000 nM; in the experiment with DU4475, 37 nM.
As to `COC[C@H]1Cn2ccc3nc(NCc4ccc(C(F)(F)F)nc4)nc(c32)N1C` [86 (W135)], the half-maximal inhibitory concentration (IC50) in experiment [1] is 38 nM; in the experiment on RKO, more than 10000 nM; in the experiment with Colo205, 79 nM; in the experiment with Hela, more than 10000 nM.
Consider `C[C@H]1CCn2ccc3nc(NCc4cnn(Cc5ccc(F)cc5)c4)nc(c32)N1C` [63 (W22)], for which the IC50 is 23 nM in experiment [1]; 3040 nM in the experiment with RKO; 14.6 nM in the experiment with Colo205; 2590 nM in the experiment with Hela; 36.3 nM with DU4475.
For `CN1CC(F)(F)Cn2ccc3nc(NCc4cnn(Cc5ccc(C(F)(F)F)nc5)c4)nc1c32` [Example 26, 8,8-difluoro-6-methyl-N-((1-((6-(trifluoromethyl)pyridin-3-yl)methyl)-1H-pyrazol-4-yl)methyl)-6,7,8,9-tetrahydro-3,5,6,9a-tetraazabenzo[cd]azulene-4-amine] the same measures were 19 nM, more than 10000 nM, 35 nM, more than 10000 nM and 28 nM.
Consider `C[C@H]1Cn2ccc3nc(NCc4ccc(Oc5ccc(C(F)(F)F)nc5)cc4)nc(c32)N1C` [78 (W87)], for which the IC50 in experiment [1] is 28 nM; in the experiment on RKO, 1420 nM; with Colo205, 27.8 nM; with Hela, 914 nM; with DU4475, 26.3 nM.
For `C[C@H]1Cn2c(C(F)F)cc3nc(NCc4cnn(Cc5ccc(C(F)(F)F)nc5)c4)nc(c32)N1C` [Example 22, (S)-8-(difluoromethyl)-4,5-dimethyl-N-((1-((6-(trifluoromethyl)pyridin-3-yl)methyl)-1H-pyridine Azol-4-yl)methyl)-5,6-dihydro-4H-pyrrolo[3,2,1-de]pteridin-2-amine], in that order: 10 nM, 5420 nM, 22 nM, more than 10000 nM and 19 nM.
On to `COC[C@H]1[C@@H](C)n2ccc3nc(NCc4cnn(Cc5ccc(C(F)(F)F)nc5)c4)nc(c32)N1C` [88 (W140)], for which the IC50 in experiment [1] was 22 nM; in the experiment on RKO, more than 10000 nM; in the experiment on Hela, more than 10000 nM.
Take `C[C@H]1C(=O)N2CCCc3nc(NCc4ccc(Cn5ccc(C(F)(F)F)n5)nc4)nc(c32)N1C` [92 (W232)]: the concentration for half-maximal inhibition (IC50) is more than 10000 nM in the experiment on RKO, 81 nM with Colo205, more than 10000 nM in the experiment with Hela and 80 nM with DU4475.
As to `[2H]C([2H])([2H])N1c2nc(NCc3ccc(Oc4cnc(C(F)(F)F)nc4)nc3)nc3c2N(CCC3)C(=O)[C@@H]1COC` [178 (W333)], the half-inhibitory concentration (IC50) in experiment [1] was 39 nM; in the experiment on HepG2 it was 23 nM; with RKO, more than 10000 nM; with Colo205, 19.2 nM; with NCI-H929, 60 nM; with DU4475, 13.7 nM.
For the compound `[2H]C([2H])([2H])N1c2nc(NCc3ccc(Oc4cnc(C(F)(F)F)nc4)nc3)nc3c2N(CCC3)C(=O)[C@@H]1CC` [162 (W270)], the IC50 in experiment [1] is 11 nM; in the experiment on HepG2 it was 16 nM; in the experiment with RKO, more than 10000 nM; in the experiment on Colo205 it was 4.9 nM; in the experiment on NCI-H929 it was 22 nM; in the experiment with DU4475, less than 0.5 nM.
For the compound `CCN1c2nc(NCc3ccc(Oc4ccc(C(F)(F)F)nc4)nc3)nc3c2N(CCC3)C(=O)[C@@H]1C` [116 (W249), (S)-4-ethyl-5-methyl-2-(((6-((6-(trifluoromethyl)pyridin-3-yl)oxo)pyridin-3-yl)methyl)amino)-4,5,9,10-tetrahydro-6H,8H-pyrido[3,2,1-de]pteridin-6-one], the IC50 was 30 nM in experiment [1]; 69 nM with HepG2; more than 10000 nM with RKO; 36 nM in the experiment on Colo205; 17 nM in the experiment with NCI-H929; 46 nM in the experiment on DU4475.
On to `CC[C@H]1C(=O)N2CCCc3nc(NCc4ccc(Cn5ccc(C(F)(F)F)n5)nc4)nc(c32)N1C` [146 (W273)], for which the IC50 in experiment [1] is 34 nM; with HepG2, 81 nM; in the experiment on RKO it was more than 10000 nM; in the experiment with Colo205, 31 nM; in the experiment on NCI-H929, 87 nM; in the experiment on DU4475 it was 18 nM.
In the case of `CCN1c2nc(NCc3ccc(Oc4cnc(C(F)(F)F)nc4)nc3)nc3c2N(CCC3)C(=O)[C@@H]1C1CC1` [166 (W287)], the IC50 in experiment [1] amounted to 23 nM; in the experiment on HepG2, 21 nM; in the experiment with RKO it was 4820 nM; in the experiment on Colo205, 16 nM; with NCI-H929, 31 nM; in the experiment with DU4475 it was 4.8 nM.
Regarding `CN1c2nc(NCc3ccc(Oc4ccc(C(F)(F)F)nc4)nc3)nc3c2N(CCC3)C(=O)[C@@H]1c1ccccc1` [127 (W280), (S)-4-methyl-5-phenyl-2-(((6-((6-(trifluoromethyl)pyridin-3-yl)oxo)pyridin-3-yl)methyl)amino)-4,5,9,10-tetrahydro-6H,8H-pyrido[3,2,1-de]pteridin-6-one], the IC50 is 20 nM in experiment [1]; 42 nM with HepG2; more than 10000 nM in the experiment on RKO; 21 nM in the experiment on Colo205; 75 nM in the experiment with NCI-H929; 42 nM with DU4475.

The IC50 is the point on the concentration scale where inhibition reaches its midpoint.
